IC50 data for 23 compounds are collected here from US20260217719A1, “CDK2 INHIBITORS” (BLUEPRINT MEDICINES CORPORATION, priority 2023, published 2026).

Structures are written as SMILES. Some results are limits rather than exact numbers.

The target of one assay is T1, CDK2/Cyclin E1 (Homo sapiens, UniProt P24941).
T1 construct: NV2641; host or cells: HEK-293
Kind of assay: NanoBRET cellular target engagement assay, CDK2/Cyclin E1 in HEK-293 cells. Particulars: HEK-293 cells transfected with CDK2-NanoLuc and CCNE1; tracer K10 0.5 μM; 2 hrs. It counts as cell-based. As to the method: (§1) In the assay, HEK-293 cells were cultured to appropriate confluence before being transiently transfected with a mix of CDK2-NanoLuc® Fusion Vector (Promega, NV2781) and CCNE1 expression vector (Promega, NV2641) for CDK2 NanoBRET assays, or CDK1-NanoLuc® Fusion Vector (Promega, NV2701) and CCNB1 expression vector (Promega, NV2601) for CDK1 NanoBRET assay, by using lipid: DNA complexes formed with FuGENE HD transfection agent (Promega, E2311). The transfected cells were cultured overnight in 1% FBS Opti-MEM media to allow the expression to fully occur. Once the expression fully occurred, varying concentrations of the test compounds were added to the cells, before a cell-permeable, fluorescent tracer (tracer K10 from Promega, N2840) was added to achieve final tracer concentration of 0.5 μM. After the addition of Nano-Glo substrate (part of a kit, Promega, N2840) and Extracellular NanoLuc inhibitor (part of a kit, Promega, N2840) 2 hrs after tracer addition, the cellular engagement of the tracer and the competition with testing compounds to the target protein was assessed based on the resulting bioluminescence resonance energy transfer (BRET) signal. BRET ratio was generated by dividing the acceptor emission signal (610 nm) by the donor emission signal (450 nm) for each sample. […] All IC50 curves were calculated using a 4 parameter logistic nonlinear regression model.

Another assay has as its target T2, CDK1/Cyclin B (Homo sapiens, UniProt P06493).
T2 construct: NV2601; host or cells: HEK-293
Nature of the assay: NanoBRET cellular target engagement assay, CDK1/Cyclin B in HEK-293 cells. Particulars: HEK-293 cells transfected with CDK1-NanoLuc and CCNB1; tracer K10 0.5 μM; 2 hrs. It counts as cell-based. The method, then: as §1

The target of another assay is T3, CDK2/Cyclin E (Homo sapiens, UniProt P24941).
T3 construct: purchased Eurofins 14-475
Nature of the assay: Enzymatic phosphorylation activity assay (Caliper mobility shift), CDK2/Cyclin E. Particulars: read-out: Enzyme CDK2/cyclin E IC50. The class given is biochemical. As to the method: (§2) Inhibitory effects of the compounds of the disclosure were measured in biochemical assays that measure the enzymatic phosphorylation activity of CDK enzyme in complex of Cyclin proteins phosphorylates 7.5 micromolar fluorescently labelled peptide substrate, 5-FAM-QSPKKG-CONH2, (FL-Peptide 18, Perkin Elmer, 760362) in the presence of adenosine-5′-triphosphate (ATP) and varying concentrations of the test compound in 100 mM 2-[4-(2-hydroxyethyl)piperazin-1-yl] ethanesulfonic acid (HEPES), pH 7.5, 10 mM MgCl2, 0.015% Brij-35, 1 mM dithiothreitol (DTT), 1.0% dimehylsulfoxide (DMSO). […] Reactions proceeded until between 10% to 20% total peptides were phosphorylated at room temperature (25° C.) and were terminated with 35 mM 2,2′,2″,2″-(ethane-1,2-diyldinitrilo)tetraacetic acid (EDTA). Product was detected using the Caliper mobility shift detection method where the phosphorylated peptide (product) and substrate were electrophoretically separated and measured. Percent activity was plotted against log concentration of compound and points to generate an apparent IC50. The following CDK enzymes in complex with different cyclin proteins were used in these assays: • CDK1/Cyclin B1, GST-tag (BPS, 40454), 1.5 nM used in the assay • CDK2/Cyclin E (Eurofins, 14-475), 1.25 nM used in the assays

The target in the next assay is T4, CDK1/Cyclin B1, GST-tag (Homo sapiens, UniProt P06493).
T4 construct: GST; purchased BPS 40454
T4 sequence (P06493 whole entry): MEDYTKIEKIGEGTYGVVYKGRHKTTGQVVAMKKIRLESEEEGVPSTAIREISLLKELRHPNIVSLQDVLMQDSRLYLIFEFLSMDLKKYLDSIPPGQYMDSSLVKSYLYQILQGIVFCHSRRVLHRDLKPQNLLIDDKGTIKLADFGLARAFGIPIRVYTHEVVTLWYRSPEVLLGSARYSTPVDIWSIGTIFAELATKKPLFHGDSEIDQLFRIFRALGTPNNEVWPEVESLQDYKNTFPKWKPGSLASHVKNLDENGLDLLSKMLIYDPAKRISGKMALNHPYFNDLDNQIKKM
T4 sequence (P14635 whole entry partner): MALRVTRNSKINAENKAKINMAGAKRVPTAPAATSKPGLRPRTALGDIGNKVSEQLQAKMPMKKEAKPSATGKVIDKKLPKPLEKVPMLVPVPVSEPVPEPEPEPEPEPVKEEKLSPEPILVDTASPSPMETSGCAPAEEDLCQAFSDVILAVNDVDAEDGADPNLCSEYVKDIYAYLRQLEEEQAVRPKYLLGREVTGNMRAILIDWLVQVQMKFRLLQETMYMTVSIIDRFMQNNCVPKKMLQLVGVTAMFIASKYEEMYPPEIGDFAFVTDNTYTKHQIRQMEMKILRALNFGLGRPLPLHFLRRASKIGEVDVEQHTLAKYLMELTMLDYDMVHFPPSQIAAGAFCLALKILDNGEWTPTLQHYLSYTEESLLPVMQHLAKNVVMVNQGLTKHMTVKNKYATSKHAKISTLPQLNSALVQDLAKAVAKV
Kind of assay: Enzymatic phosphorylation activity assay (Caliper mobility shift), CDK1/Cyclin B1. The class given is biochemical. Particulars: read-out: Enzyme CDK1/cyclin B1 IC50. The method, then: as §2

T2 sequence (P06493 whole entry): as the sequence (P06493 whole entry) above
T2 sequence (P14635 whole entry partner): as the sequence (P14635 whole entry partner) above

As for `c1cncc(Cn2ccc3ncc(Nc4cc([C@@H]5CCOC5)[nH]n4)nc32)c1` (single isomer, unassigned) [Example 17, (S)-5-(pyridin-3-ylmethyl)-N-(5-(tetrahydrofuran-3-yl)-1H-pyrazol-3-yl)-5H-pyrrolo[2,3-b]pyrazin-3-amine or (R)-5-(pyridin-3-ylmethyl)-N-(5-(tetrahydrofuran-3-yl)-1H-pyrazol-3-yl)-5H-pyrrolo[2,3-b]pyrazin-3-amine], the figures for the IC50 at CDK2/Cyclin E1 and against CDK1/Cyclin B were 5.8 nM and 624 nM, respectively.

As to `c1cnnc(Cn2ccc3ncc(Nc4cc([C@@H]5CCOC5)[nH]n4)nc32)c1` (single isomer, unassigned) [Example 25, (S)-5-(pyridazin-3-ylmethyl)-N-(5-(tetrahydrofuran-3-yl)-1H-pyrazol-3-yl)-5H-pyrrolo[2,3-b]pyrazin-3-amine or (R)-5-(pyridazin-3-ylmethyl)-N-(5-(tetrahydrofuran-3-yl)-1H-pyrazol-3-yl)-5H-pyrrolo[2,3-b]pyrazin-3-amine], the IC50 is 128 nM against CDK2/Cyclin E1 and 2780 nM against CDK1/Cyclin B.

With `CC(C)c1cc(Nc2cnc3ccn(CC4CCOCC4)c3n2)n[nH]1` [Example 1, N-(5-isopropyl-1H-pyrazol-3-yl)-5-((tetrahydro-2H-pyran-4-yl)methyl)-5H-pyrrolo[2,3-b]pyrazin-3-amine], the IC50 at CDK2/Cyclin E came out at 0.44 nM; at CDK1/Cyclin B1, GST-tag, 115 nM.

With `FC(F)Oc1cc(Nc2cnc3ccn(CC4CCOCC4)c3n2)n[nH]1` [Example 2, N-(5-(difluoromethoxy)-1H-pyrazol-3-yl)-5-((tetrahydro-2H-pyran-4-yl)methyl)-5H-pyrrolo[2,3-b]pyrazin-3-amine], the IC50 on CDK2/Cyclin E was 0.71 nM; at CDK1/Cyclin B1, GST-tag, 163 nM.

Consider `FC(F)Oc1cc(Nc2cnc3ccn(CC4CCNCC4)c3n2)n[nH]1` [Example 7, N-(5-(difluoromethoxy)-1H-pyrazol-3-yl)-5-(piperidin-4-ylmethyl)-5H-pyrrolo[2,3-b]pyrazin-3-amine], for which the IC50 against CDK2/Cyclin E1 is 1130 nM; against CDK1/Cyclin B, greater than 10000 nM.

In the case of `CN1CCC(Cn2ccc3ncc(Nc4cc(OC(F)F)[nH]n4)nc32)CC1` [Example 8, N-(5-(difluoromethoxy)-1H-pyrazol-3-yl)-5-((1-methylpiperidin-4-yl)methyl)-5H-pyrrolo[2,3-b]pyrazin-3-amine], the IC50 at CDK2/Cyclin E1 was 162 nM; at CDK1/Cyclin B it was greater than 10000 nM.

For the compound `FC(F)Oc1cc(Nc2cnc3ccn(C[C@H]4CCCNC4)c3n2)n[nH]1` [Example 9, (S)—N-(5-(difluoromethoxy)-1H-pyrazol-3-yl)-5-(piperidin-3-ylmethyl)-5H-pyrrolo[2,3-b]pyrazin-3-amine], the IC50 amounted to 4.9 nM against CDK2/Cyclin E1 and 1730 nM against CDK1/Cyclin B.

As to `CN1CCC[C@H](Cn2ccc3ncc(Nc4cc(OC(F)F)[nH]n4)nc32)C1` [Example 10, (S)—N-(5-(difluoromethoxy)-1H-pyrazol-3-yl)-5-((1-methylpiperidin-3-yl)methyl)-5H-pyrrolo[2,3-b]pyrazin-3-amine], the IC50 on CDK2/Cyclin E1 stood at 6 nM; against CDK1/Cyclin B, 3210 nM.

For the compound `C[C@@H](C1CCOCC1)n1ccc2ncc(Nc3cc(OC(F)F)[nH]n3)nc21` [Example 11, (S)—N-(5-(difluoromethoxy)-1H-pyrazol-3-yl)-5-(1-(tetrahydro-2H-pyran-4-yl)ethyl)-5H-pyrrolo[2,3-b]pyrazin-3-amine], the IC50 on CDK2/Cyclin E1 was 1.2 nM; against CDK1/Cyclin B, 71.7 nM.

For the compound `O[C@H]1CC[C@H](n2ccc3ncc(Nc4cc(OC(F)F)[nH]n4)nc32)CC1` [Example 12, (1r,4r)-4-(3-((5-(difluoromethoxy)-1H-pyrazol-3-yl)amino)-5H-pyrrolo[2,3-b]pyrazin-5-yl)cyclohexan-1-ol], the IC50 is 1.1 nM against CDK2/Cyclin E1 and 347 nM against CDK1/Cyclin B.

For the compound `FC(F)Oc1cc(Nc2cnc3ccn(Cc4cccnn4)c3n2)n[nH]1` [Example 13, N-(5-(difluoromethoxy)-1H-pyrazol-3-yl)-5-(pyridazin-3-ylmethyl)-5H-pyrrolo[2,3-b]pyrazin-3-amine], the IC50 is 7.4 nM against CDK2/Cyclin E1 and 898 nM against CDK1/Cyclin B.

In the case of `OC1(Cn2ccc3ncc(Nc4cc(OC(F)F)[nH]n4)nc32)CCOCC1` [Example 14, 4-((3-((5-(difluoromethoxy)-1H-pyrazol-3-yl)amino)-5H-pyrrolo[2,3-b]pyrazin-5-yl)methyl)tetrahydro-2H-pyran-4-ol], the IC50 at CDK2/Cyclin E1 amounted to 137 nM; at CDK1/Cyclin B, 325 nM.

With `C[C@@H](CO)Cn1ccc2ncc(Nc3cc(OC(F)F)[nH]n3)nc21` [Example 15, (R)-3-(3-((5-(difluoromethoxy)-1H-pyrazol-3-yl)amino)-5H-pyrrolo[2,3-b]pyrazin-5-yl)-2-methylpropan-1-ol], the IC50 at CDK2/Cyclin E1 was determined as 8.8 nM; at CDK1/Cyclin B, 7460 nM.

For the compound `c1cncc(Cn2ccc3ncc(Nc4cc(C5COC5)[nH]n4)nc32)c1` [Example 16, N-(5-(oxetan-3-yl)-1H-pyrazol-3-yl)-5-(pyridin-3-ylmethyl)-5H-pyrrolo[2,3-b]pyrazin-3-amine], the IC50 is 10.9 nM on CDK2/Cyclin E1 and 291 nM against CDK1/Cyclin B.

As to `COc1cc(Nc2cnc3ccn(Cc4cccnc4)c3n2)n[nH]1` [Example 18, N-(5-methoxy-1H-pyrazol-3-yl)-5-(pyridin-3-ylmethyl)-5H-pyrrolo[2,3-b]pyrazin-3-amine], the IC50 against CDK2/Cyclin E1 amounted to 10.3 nM; against CDK1/Cyclin B it was 660 nM.

For the compound `Cc1cc(Nc2cnc3ccn(Cc4cccnc4)c3n2)n[nH]1` [Example 19, N-(5-methyl-1H-pyrazol-3-yl)-5-(pyridin-3-ylmethyl)-5H-pyrrolo[2,3-b]pyrazin-3-amine], the IC50 came to 35.7 nM at CDK2/Cyclin E1 and 4450 nM on CDK1/Cyclin B.

For the compound `N#Cc1cc(Nc2cnc3ccn(Cc4cccnc4)c3n2)n[nH]1` [Example 20, 3-((5-(pyridin-3-ylmethyl)-5H-pyrrolo[2,3-b]pyrazin-3-yl)amino)-1H-pyrazole-5-carbonitrile], the IC50 against CDK2/Cyclin E1 is 112 nM; against CDK1/Cyclin B, 7560 nM.

Regarding `COc1cc(Nc2cnc3ccn(C[C@H]4CCCN(C)C4)c3n2)n[nH]1` [Example 21, (S)—N-(5-methoxy-1H-pyrazol-3-yl)-5-((1-methylpiperidin-3-yl)methyl)-5H-pyrrolo[2,3-b]pyrazin-3-amine], the IC50 on CDK2/Cyclin E1 was 1630 nM; against CDK1/Cyclin B it was greater than 10000 nM.

Regarding `COc1cc(Nc2cnc3ccn(Cc4cccnn4)c3n2)n[nH]1` [Example 22, N-(5-methoxy-1H-pyrazol-3-yl)-5-(pyridazin-3-ylmethyl)-5H-pyrrolo[2,3-b]pyrazin-3-amine], the values for the IC50 on CDK2/Cyclin E1 and against CDK1/Cyclin B were 6.9 nM and 207 nM, respectively.

Turning to `c1cnnc(Cn2ccc3ncc(Nc4cc(C5COC5)[nH]n4)nc32)c1` [Example 23, N-(5-(oxetan-3-yl)-1H-pyrazol-3-yl)-5-(pyridazin-3-ylmethyl)-5H-pyrrolo[2,3-b]pyrazin-3-amine], the IC50 against CDK2/Cyclin E1 was 110 nM; against CDK1/Cyclin B, 1300 nM.

As for `Cc1cc(Nc2cnc3ccn(Cc4cccnn4)c3n2)n[nH]1` [Example 24, N-(5-methyl-1H-pyrazol-3-yl)-5-(pyridazin-3-ylmethyl)-5H-pyrrolo[2,3-b]pyrazin-3-amine], the results for the IC50 against CDK2/Cyclin E1 and at CDK1/Cyclin B were 105 nM and 3820 nM, respectively.

`FC(F)Oc1cc(Nc2cnc3ccn(C[C@@H]4CCCNC4)c3n2)n[nH]1` [Example 27, (R)—N-(5-(difluoromethoxy)-1H-pyrazol-3-yl)-5-(piperidin-3-ylmethyl)-5H-pyrrolo[2,3-b]pyrazin-3-amine]: the IC50 was determined as 16.9 nM at CDK2/Cyclin E1 and 3580 nM at CDK1/Cyclin B.

For the compound `CN1CCC[C@@H](Cn2ccc3ncc(Nc4cc(OC(F)F)[nH]n4)nc32)C1` [Example 28, (R)—N-(5-(difluoromethoxy)-1H-pyrazol-3-yl)-5-((1-methylpiperidin-3-yl)methyl)-5H-pyrrolo[2,3-b]pyrazin-3-amine], the IC50 against CDK2/Cyclin E1 was 112 nM; at CDK1/Cyclin B, 8310 nM.
